Measured values as given in publication PMC11310079, “Commensal production of a broad-spectrum and short-lived antimicrobial peptide polyene eliminates nasal Staphylococcus aureus” (Nature Microbiology, 2023).

Key:
[1] = tested on: S. aureus USA300 LAC; assay: Stability analysis of epifadin (bioactivity by agar diffusion after incubation); format: physicochemical, Staphylococcus aureus; conditions: 37 °C, pH 7, light, r4-r10 = 0-6 h
Experimental: Fig. 2 High instability of epifadin under in vivo-like conditions. S. epidermidis IVK83 culture supernatants containing epifadin were precipitated with HCl, freeze-dried and extracted with DMSO. This extract was diluted in TSB, incubated for the indicated time periods with constant shaking under the respective conditions and subsequently tested for activity towards S. aureus USA300 LAC. a, Stability of epifadin compared with other antibacterial agents under standard laboratory conditions (37 °C, pH 7, laboratory light exposure). b, In vivo-like conditions with laboratory light exposure at pH 7 (nasal condition) or pH 5.5 (skin condition) and reduced temperatures; incubation of epifadin under exclusion from light enabled further purification and activity determination. Conditions at pH 7, 37 °C and 0 h were used as reference for 100% stability. Data shown represent the mean ± s.d. of three independent experiments. Source data
The effect of different incubation conditions on the bioactivity of epifadin was analysed by agar diffusion assays on lawns of the sensitive indicator strain S. aureus USA300 LAC. To this end, liquid TSA was inoculated with an overnight culture of USA300 at an OD600 of 0.00125. After solidification of the agar, a cork borer was used to punch wells into the agar with 5 mm diameter. TSB media with 50 mM sodium citrate (pH 5 and 6) or 50 mM tris(hydroxymethyl)aminomethane (pH 8 and 9) were prepared. Epifadin-containing precipitate was dissolved in DMSO (12 mg ml^−1), and insoluble particles were removed by centrifugation. The supernatant was added to the prepared TSB media at a final concentration of 750 µg precipitate per millilitre (37.5 µg in 50 µl). Media were incubated for 6 h at 21 °C, 30 °C or 37 °C with or without laboratory light exposure and constant shaking at 500 rpm in a thermomixer (Eppendorf). As controls, 70 µg ml^−1 (3.5 µg in 50 µl) lugdunin, 24 µg ml^−1 (1.2 µg in 50 µl) gallidermin and 100 µg ml^−1 (5 µg in 50 µl) nisin were used. At different timepoints, 50 µl of each sample was pipetted into the wells of the agar plates. After incubation at 37 °C overnight, zones of inhibition were analysed with ImageJ software (version 1.8.0_112).

[2] = tested on: S. aureus USA300 JE2; assay: Determination of the IC (miniaturized agar diffusion assay); format: cell-based, Staphylococcus aureus; conditions: agar diffusion on inoculated TSA, 24 h 37 °C dark; IC from inhibited agar volume
Experimental: (§1) Instead, a miniaturized assay was developed. Molten TSA, kept below 42 °C, was inoculated with different test strains at an OD600 of 0.00125. Then, 17.5 ml was poured into Petri dishes, resulting in agar layers of ~3.16 mm thickness. After solidification, a cork borer was used to punch wells of 4-mm diameter into the agar. Thirty-five microlitres of purified epifadin in DMSO–PA (2.4 µg, 1.2 µg, 0.6 µg, 0.3 µg, 0.15 µg and 0.075 µg) was pipetted into the wells, and agar plates were incubated for 24 h at 37 °C in the dark. Diameters of the zones of inhibition were measured and the volume containing the inhibitory epifadin concentration was calculated, using the following formula for cylinder volume: Vc=πxr^2xhVc=cylindervolumeVi=πrz2xha−(πrw2xha)Vi=inhibitedvolumerz2=radius(diameter/2)zoneofinhibitionrw2=radius(diameter/2)ofwellha=heightofagar
(§2) The volume of agar showing inhibition of the test strain was then correlated with the included amount of epifadin, and the epifadin concentration necessary to inhibit test strain growth in a 1 ml volume was calculated to yield IC values. If, for example, 2.4 µg of epifadin lead to an inhibited volume of 480 µl, to inhibit a volume of 1 ml, 5 µg epifadin is needed, which corresponds to an IC of 5 μg ml^−1. These calculations were conducted for the lowest amount of epifadin that led to a zone of inhibition to minimize the necessary epifadin amounts and the calculation error due to the gradient within the inhibition zone. As a control, the same assay was used to determine the IC for vancomycin, daptomycin and lugdunin under these conditions.

[3] = tested on: S. aureus USA300LAC; assay: as above; format: cell-based, Staphylococcus aureus; conditions: agar diffusion on inoculated TSA, 35 µl in 4-mm wells, 24 h 37 °C dark; IC from inhibited agar volume at lowest active amount
Experimental: as §1, §2

Molecule: Nisin
- stability (remaining antimicrobial activity, 0 h = 100%) ([1]; nisin 100 µg/ml in TSB, experiment 1 of 3, after 1 h incubation): 97.92%
- stability (remaining antimicrobial activity, 0 h = 100%) ([1]; nisin 100 µg/ml in TSB, experiment 1 of 3, after 2 h incubation): 95.64%
- stability (remaining antimicrobial activity, 0 h = 100%) ([1]; nisin 100 µg/ml in TSB, experiment 1 of 3, after 3 h incubation): 93.46%
- stability (remaining antimicrobial activity, 0 h = 100%) ([1]; nisin 100 µg/ml in TSB, experiment 1 of 3, after 4 h incubation): 95.48%
- stability (remaining antimicrobial activity, 0 h = 100%) ([1]; nisin 100 µg/ml in TSB, experiment 1 of 3, after 5 h incubation): 97.51%
- stability (remaining antimicrobial activity, 0 h = 100%) ([1]; nisin 100 µg/ml in TSB, experiment 1 of 3, after 6 h incubation): 85.14%
- stability (remaining antimicrobial activity, 0 h = 100%) ([1]; nisin 100 µg/ml in TSB, experiment 2 of 3, after 1 h incubation): 104.00%
- stability (remaining antimicrobial activity, 0 h = 100%) ([1]; nisin 100 µg/ml in TSB, experiment 2 of 3, after 2 h incubation): 100.36%
- stability (remaining antimicrobial activity, 0 h = 100%) ([1]; nisin 100 µg/ml in TSB, experiment 2 of 3, after 3 h incubation): 102.17%
- stability (remaining antimicrobial activity, 0 h = 100%) ([1]; nisin 100 µg/ml in TSB, experiment 2 of 3, after 4 h incubation): 101.46%
- stability (remaining antimicrobial activity, 0 h = 100%) ([1]; nisin 100 µg/ml in TSB, experiment 2 of 3, after 5 h incubation): 105.85%
- stability (remaining antimicrobial activity, 0 h = 100%) ([1]; nisin 100 µg/ml in TSB, experiment 2 of 3, after 6 h incubation): 97.13%
- stability (remaining antimicrobial activity, 0 h = 100%) ([1]; nisin 100 µg/ml in TSB, experiment 3 of 3, after 1 h incubation): 107.69%
- stability (remaining antimicrobial activity, 0 h = 100%) ([1]; nisin 100 µg/ml in TSB, experiment 3 of 3, after 2 h incubation): 105.39%
- stability (remaining antimicrobial activity, 0 h = 100%) ([1]; nisin 100 µg/ml in TSB, experiment 3 of 3, after 4 h incubation): 113.09%
- stability (remaining antimicrobial activity, 0 h = 100%) ([1]; nisin 100 µg/ml in TSB, experiment 3 of 3, after 5 h incubation): 97.70%
- stability (remaining antimicrobial activity, 0 h = 100%) ([1]; nisin 100 µg/ml in TSB, experiment 3 of 3, after 6 h incubation): 77.36%

Molecule: CN[C@H](CC(C)C)C(=O)N[C@H]1C(=O)N[C@@H](CC(N)=O)C(=O)N[C@H]2C(=O)N[C@H]3C(=O)N[C@H](C(=O)N[C@H](C(=O)O)c4cc(O)cc(O)c4-c4cc3ccc4O)[C@H](O)c3ccc(c(Cl)c3)Oc3cc2cc(c3O[C@@H]2O[C@H](CO)[C@@H](O)[C@H](O)[C@H]2O[C@H]2C[C@](C)(N)[C@H](O)[C@H](C)O2)Oc2ccc(cc2Cl)[C@H]1O [Vancomycin]
- IC* [2]: 3.7 µg/mL
- IC* [3]: 6.0 µg/mL

Molecule: Gallidermin
- stability (remaining antimicrobial activity, 0 h = 100%) ([1]; gallidermin 24 µg/ml in TSB, experiment 1 of 3, after 1 h incubation): 98.31%
- stability (remaining antimicrobial activity, 0 h = 100%) ([1]; gallidermin 24 µg/ml in TSB, experiment 1 of 3, after 2 h incubation): 98.34%
- stability (remaining antimicrobial activity, 0 h = 100%) ([1]; gallidermin 24 µg/ml in TSB, experiment 1 of 3, after 3 h incubation): 97.66%
- stability (remaining antimicrobial activity, 0 h = 100%) ([1]; gallidermin 24 µg/ml in TSB, experiment 1 of 3, after 4 h incubation): 104.98%
- stability (remaining antimicrobial activity, 0 h = 100%) ([1]; gallidermin 24 µg/ml in TSB, experiment 1 of 3, after 5 h incubation): 100.66%
- stability (remaining antimicrobial activity, 0 h = 100%) ([1]; gallidermin 24 µg/ml in TSB, experiment 1 of 3, after 6 h incubation): 98.44%
- stability (remaining antimicrobial activity, 0 h = 100%) ([1]; gallidermin 24 µg/ml in TSB, experiment 2 of 3, after 1 h incubation): 97.85%
- stability (remaining antimicrobial activity, 0 h = 100%) ([1]; gallidermin 24 µg/ml in TSB, experiment 2 of 3, after 2 h incubation): 106.35%
- stability (remaining antimicrobial activity, 0 h = 100%) ([1]; gallidermin 24 µg/ml in TSB, experiment 2 of 3, after 3 h incubation): 110.68%
- stability (remaining antimicrobial activity, 0 h = 100%) ([1]; gallidermin 24 µg/ml in TSB, experiment 2 of 3, after 4 h incubation): 102.27%
- stability (remaining antimicrobial activity, 0 h = 100%) ([1]; gallidermin 24 µg/ml in TSB, experiment 2 of 3, after 5 h incubation): 103.29%
- stability (remaining antimicrobial activity, 0 h = 100%) ([1]; gallidermin 24 µg/ml in TSB, experiment 2 of 3, after 6 h incubation): 108.21%
- stability (remaining antimicrobial activity, 0 h = 100%) ([1]; gallidermin 24 µg/ml in TSB, experiment 3 of 3, after 1 h incubation): 100.01%
- stability (remaining antimicrobial activity, 0 h = 100%) ([1]; gallidermin 24 µg/ml in TSB, experiment 3 of 3, after 2 h incubation): 96.91%
- stability (remaining antimicrobial activity, 0 h = 100%) ([1]; gallidermin 24 µg/ml in TSB, experiment 3 of 3, after 3 h incubation): 95.85%
- stability (remaining antimicrobial activity, 0 h = 100%) ([1]; gallidermin 24 µg/ml in TSB, experiment 3 of 3, after 4 h incubation): 100.24%
- stability (remaining antimicrobial activity, 0 h = 100%) ([1]; gallidermin 24 µg/ml in TSB, experiment 3 of 3, after 5 h incubation): 103.69%
- stability (remaining antimicrobial activity, 0 h = 100%) ([1]; gallidermin 24 µg/ml in TSB, experiment 3 of 3, after 6 h incubation): 91.59%
